From paper PMC12454493, “Insight on novel sulfamoylphenyl pyrazole derivatives as anticancer carbonic anhydrase inhibitors” (Molecular Diversity, 2024)

How the values were obtained:
Type in all cases: cell-based
[1] = system: CCRF-CEM; experiment: NCI-60 one-dose SRB screen (Leukemia); settings: Homo sapiens, single dose 10 µM, 48 h, read-out: Growth inhibition percent (GI %)
Procedure: (§1) The National Cancer Institute (NCI) Developmental Therapeutic Program (www.dtp.nci.nih.gov) selected the 20 novel synthesized compounds 4a-e, 5a-e, 6a-c, 9a-e, 10 and 11 to test for their anticancer activity at a single dose of 10 µM using SRB assay. […] Supplementary Data S3; Table S1 presents the detailed screening results of the most promising compounds. The preliminary screening’s detailed results for the remaining compounds are elucidated in the (Supplementary Data S3; Table S2).
(§2) The guidelines of the Drug Evaluation Branch’s protocol at the NCI in Bethesda served as the basis for the in vitro anticancer screening assays. at one dose 10 µM against a panel of 60 cancer cell lines. The human tumor cell lines used belonged to nine panels: leukemia, melanoma, lung, colon, CNS, ovarian, renal, prostate and breast cancers using the sulforhodamine B (SRB) assay in a 48 h drug exposure protocol.

[2] = system: HL-60(TB); experiment: NCI-60 one-dose SRB screen (Leukemia); settings: Homo sapiens, single dose 10 µM, 48 h, read-out: Growth inhibition percent (GI %)
Procedure: as §1, §2

[3] = system: K-562; experiment: NCI-60 one-dose SRB screen (Leukemia); settings: Homo sapiens, K562, single dose 10 µM, 48 h, read-out: Growth inhibition percent (GI %)
Procedure: as §1, §2

[4] = system: MOLT-4; experiment: NCI-60 one-dose SRB screen (Leukemia); settings: Homo sapiens, single dose 10 µM, 48 h, read-out: Growth inhibition percent (GI %)
Procedure: as §1, §2

[5] = system: RPMI-8226; experiment: NCI-60 one-dose SRB screen (Leukemia); settings: Homo sapiens, single dose 10 µM, 48 h, read-out: Growth inhibition percent (GI %)
Procedure: as §1, §2

[6] = system: SR; experiment: NCI-60 one-dose SRB screen (Leukemia); settings: Homo sapiens, single dose 10 µM, 48 h, read-out: Growth inhibition percent (GI %)
Procedure: as §1, §2

[7] = system: A549/ATCC; experiment: NCI-60 one-dose SRB screen (Non-Small Cell Lung Cancer); settings: Homo sapiens, single dose 10 µM, 48 h, read-out: Growth inhibition percent (GI %)
Procedure: as §1, §2

[8] = system: EKVX; experiment: as above; settings: Homo sapiens, single dose 10 µM, 48 h, read-out: Growth inhibition percent (GI %)
Procedure: as §1, §2

[9] = system: HOP-62; experiment: as above; settings: Homo sapiens, single dose 10 µM, 48 h, read-out: Growth inhibition percent (GI %)
Procedure: as §1, §2

[10] = system: HOP-92; experiment: as above; settings: Homo sapiens, single dose 10 µM, 48 h, read-out: Growth inhibition percent (GI %)
Procedure: as §1, §2

[11] = system: NCI-H226; experiment: as above; settings: Homo sapiens, single dose 10 µM, 48 h, read-out: Growth inhibition percent (GI %)
Procedure: as §1, §2

[12] = system: NCI-H23; experiment: as above; settings: Homo sapiens, single dose 10 µM, 48 h, read-out: Growth inhibition percent (GI %)
Procedure: as §1, §2

[13] = system: NCI-H322M; experiment: as above; settings: Homo sapiens, single dose 10 µM, 48 h, read-out: Growth inhibition percent (GI %)
Procedure: as §1, §2

[14] = system: NCI-H460; experiment: as above; settings: Homo sapiens, single dose 10 µM, 48 h, read-out: Growth inhibition percent (GI %)
Procedure: as §1, §2

[15] = system: NCI-H522; experiment: as above; settings: Homo sapiens, single dose 10 µM, 48 h, read-out: Growth inhibition percent (GI %)
Procedure: as §1, §2

[16] = system: COLO 205; experiment: NCI-60 one-dose SRB screen (Colon Cancer); settings: Homo sapiens, single dose 10 µM, 48 h, read-out: Growth inhibition percent (GI %)
Procedure: as §1, §2

[17] = system: HCC-2998; experiment: NCI-60 one-dose SRB screen (Colon Cancer); settings: Homo sapiens, single dose 10 µM, 48 h, read-out: Growth inhibition percent (GI %)
Procedure: as §1, §2

[18] = system: HCT-116; experiment: NCI-60 one-dose SRB screen (Colon Cancer); settings: Homo sapiens, single dose 10 µM, 48 h, read-out: Growth inhibition percent (GI %)
Procedure: as §1, §2

[19] = system: HCT-15; experiment: NCI-60 one-dose SRB screen (Colon Cancer); settings: Homo sapiens, single dose 10 µM, 48 h, read-out: Growth inhibition percent (GI %)
Procedure: as §1, §2

[20] = system: HT29; experiment: NCI-60 one-dose SRB screen (Colon Cancer); settings: Homo sapiens, HT-29, single dose 10 µM, 48 h, read-out: Growth inhibition percent (GI %)
Procedure: as §1, §2

[21] = system: KM12; experiment: NCI-60 one-dose SRB screen (Colon Cancer); settings: Homo sapiens, single dose 10 µM, 48 h, read-out: Growth inhibition percent (GI %)
Procedure: as §1, §2

[22] = system: SW-620; experiment: NCI-60 one-dose SRB screen (Colon Cancer); settings: Homo sapiens, single dose 10 µM, 48 h, read-out: Growth inhibition percent (GI %)
Procedure: as §1, §2

[23] = system: SF-268; experiment: NCI-60 one-dose SRB screen (CNS Cancer); settings: Homo sapiens, single dose 10 µM, 48 h, read-out: Growth inhibition percent (GI %)
Procedure: as §1, §2

[24] = system: SF-295; experiment: NCI-60 one-dose SRB screen (CNS Cancer); settings: Homo sapiens, single dose 10 µM, 48 h, read-out: Growth inhibition percent (GI %)
Procedure: as §1, §2

[25] = system: SF-539; experiment: NCI-60 one-dose SRB screen (CNS Cancer); settings: Homo sapiens, single dose 10 µM, 48 h, read-out: Growth inhibition percent (GI %)
Procedure: as §1, §2

[26] = system: SNB-19; experiment: NCI-60 one-dose SRB screen (CNS Cancer); settings: Homo sapiens, single dose 10 µM, 48 h, read-out: Growth inhibition percent (GI %)
Procedure: as §1, §2

[27] = system: SNB-75; experiment: NCI-60 one-dose SRB screen (CNS Cancer); settings: Homo sapiens, single dose 10 µM, 48 h, read-out: Growth inhibition percent (GI %)
Procedure: as §1, §2

[28] = system: U251; experiment: NCI-60 one-dose SRB screen (CNS Cancer); settings: Homo sapiens, U-251, single dose 10 µM, 48 h, read-out: Growth inhibition percent (GI %)
Procedure: as §1, §2

[29] = system: LOX IMVI; experiment: NCI-60 one-dose SRB screen (Melanoma); settings: Homo sapiens, single dose 10 µM, 48 h, read-out: Growth inhibition percent (GI %)
Procedure: as §1, §2

Compound: NS(=O)(=O)c1ccc(NC(=O)COC(=O)c2cn(-c3ccc(S(N)(=O)=O)cc3)nc2-c2ccccc2)cc1 [Compound 4a, 2-Oxo-2-[(4-sulfamoylphenyl)amino] ethyl 3-phenyl-1-(4-sulfamoylphenyl)-1H-pyrazole-4-carboxylate]
- inhibition at 10 µM [1]: < 5%
- inhibition at 10 µM [2]: 16.6%
- inhibition at 10 µM [3]: 16.7%
- inhibition at 10 µM [4]: < 5%
- inhibition at 10 µM [5]: < 5%
- inhibition at 10 µM [6]: < 5%
- inhibition at 10 µM [7]: < 5%
- inhibition at 10 µM [8]: < 5%
- inhibition at 10 µM [9]: < 5%
- inhibition at 10 µM [10]: < 5%
- inhibition at 10 µM [11]: < 5%
- inhibition at 10 µM [12]: < 5%
- inhibition at 10 µM [13]: < 5%
- inhibition at 10 µM [14]: < 5%
- inhibition at 10 µM [15]: < 5%
- inhibition at 10 µM [16]: < 5%
- inhibition at 10 µM [17]: < 5%
- inhibition at 10 µM [18]: 27.8%
- inhibition at 10 µM [19]: < 5%
- inhibition at 10 µM [20]: < 5%
- inhibition at 10 µM [21]: < 5%
- inhibition at 10 µM [22]: < 5%
- inhibition at 10 µM [23]: < 5%
- inhibition at 10 µM [24]: < 5%
- inhibition at 10 µM [25]: < 5%
- inhibition at 10 µM [26]: < 5%
- inhibition at 10 µM [27]: 31.1%
- inhibition at 10 µM [28]: < 5%
- inhibition at 10 µM [29]: < 5%
